# Test results reported in ChEMBL document CHEMBL5113512, “β-Nitrostyrene derivatives as broad range potential antifungal agents targeting fungal cell wall” (2022).
# The source made the active and inactive calls. The calls are words filed in the database; no cut-off is given here.
# How the values were obtained:
# [1] = test system: Candida albicans; test: Upregulation of IFF8 gene expression in Candida albicans ATCC 24433 by qRT-PCR analysis; type: functional
# [2] = test system: Candida albicans; test: Synergistic antifungal activity against Candida albicans ATCC 24433 assessed as inhibition of fungal growth incubated for 48 hrs in presence of Calcoflour White by checker board assay; type: functional
# [3] = test system: Candida; test: Downregulation of PRS5 gene expression in Candida cells; type: functional, cell-based
# [4] = test system: Candida albicans; test: Synergistic antifungal activity against Candida albicans ATCC 24433 assessed as fractional inhibitory concentration index incubated for 48 hrs in presence of caspofungin by checker board assay; type: functional
# [5] = test system: Candida albicans; test: Synergistic antifungal activity against wild type Candida albicans SN152 assessed as Amphotericin B MIC incubated for 48 hrs by checker board assay; type: functional
# [6] = test system: Candida; test: Downregulation of CDC42 gene expression in Candida cells; type: functional, cell-based
# [7] = test system: Candida albicans; test: Antifungal activity against Candida albicans ATCC 24433 overexpressing transporter protein F5 assessed as inhibition of fungal growth by broth microdilution method; type: functional
# [8] = test system: Candida albicans; test: Downregulation of CAS5 gene expression in Candida albicans ATCC 24433 by qRT-PCR analysis; type: functional
# [9] = test system: Candida; test: Downregulation of ACF2 gene expression in Candida cells; type: functional, cell-based
# [10] = test system: Candida; test: Downregulation of CDC4 gene expression in Candida cells; type: functional, cell-based
# [11] = test system: [Candida] auris; test: Antifungal activity against wild type Candida auris 102 assessed as inhibition of fungal growth by broth microdilution method; type: functional; details: Candidozyma auris
# [12] = test system: Candida; test: Downregulation of CCT2 gene expression in Candida cells; type: functional, cell-based
# [13] = test system: Candida albicans; test: Synergistic antifungal activity against Candida albicans ATCC 24433 assessed as fractional inhibitory concentration index incubated for 48 hrs in presence of Congo red by checker board assay; type: functional
# [14] = test system: Cell membrane; test: Disruption of membrane integrity in Candida auris CBS10913 assessed as cell surface perturbations measured after 3 hrs by SEM analysis; type: subcellular; details: Candidozyma auris
# [15] = test system: Cell membrane; test: Disruption of membrane integrity in Candida albicans ATCC 24433 assessed as cell deformation measured after 30 mins by SEM analysis; type: subcellular
# [16] = test system: Candida; test: Upregulation of HYM1 gene expression in Candida cells; type: functional, cell-based
# [17] = test system: Candida albicans; test: Synergistic antifungal activity against Candida albicans ATCC 24433 assessed as Calcoflour White MIC incubated for 48 hrs by checker board assay; type: functional
# [18] = test system: Candida albicans; test: Antifungal activity against Candida albicans ATCC 24433 overexpressing AD(1-8)u-assessed as inhibition of fungal growth by broth microdilution method; type: functional
# [19] = test system: Candida albicans; test: Synergistic antifungal activity against Candida albicans ATCC 24433 overexpressing ADCDR1-GFP assessed as fractional inhibitory concentration index incubated for 48 hrs in presence of caspofungin by checker board assay; type: functional
# [20] = test system: Candida; test: Downregulation of BMT4 gene expression in Candida cells; type: functional, cell-based
# [21] = test system: Candida; test: Downregulation of PGA10 gene expression in Candida cells; type: functional, cell-based
# [22] = test system: [Candida] auris; test: Antifungal activity against Candida auris 102 assessed as inhibition of fungal growth by broth microdilution method; type: functional; details: Candidozyma auris
# [23] = test system: Candida; test: Upregulation of GAL4 gene expression in Candida cells; type: functional, cell-based
# [24] = test system: Cell membrane; test: Disruption of membrane integrity in Candida auris CBS10913 assessed as cell shrinkage and lysis by measuring leakage of intracellular material measured after 6 hrs by SEM analysis; details: Candidozyma auris
# [25] = test system: Candida parapsilosis; test: Synergistic antifungal activity against Candida parapsilosis ATCC 90018 assessed as fractional inhibitory concentration index incubated for 48 hrs in presence of SDS by checker board assay; type: functional
# [26] = test system: Candida albicans; test: Synergistic antifungal activity against wild type Candida albicans SN152 assessed as fractional inhibitory concentration index incubated for 48 hrs in presence of Caspofungin by checker board assay; type: functional
# [27] = test system: Candida albicans; test: Synergistic antifungal activity against wild type Candida albicans SN152 assessed as Caspofungin MIC incubated for 48 hrs by checker board assay; type: functional
# [28] = test system: Candida albicans; test: Inhibition of drug efflux in Candida albicans ATCC 24433 overexpressing ADCDR1-GFP assessed as reduction in rhodamine 6g efflux preincubated for 45 mins followed by substrate addition and measured after 30 mins; type: functional; details: dose 0.1-100 µg/ml, time 75.0 min, DDE = dose-dependent effect
# [29] = test system: Candida albicans; test: Induction of ROS generation in Candida albicans ATCC 24433 at sub-inhibitory concentration incubated for 1 hr by DCFDA staining-based flow cytometric analysis; type: functional, organism-based
# [30] = test system: Candida parapsilosis; test: Synergistic antifungal activity against Candida parapsilosis ATCC 90018 assessed as fractional inhibitory concentration index incubated for 48 hrs in presence of Congo red by checker board assay; type: functional
# [31] = test system: Candida albicans; test: Upregulation of NAG4 gene expression in Candida albicans ATCC 24433 by qRT-PCR analysis; type: functional
# [32] = test system: Candida; test: Downregulation of PGA13 gene expression in Candida cells; type: functional, cell-based
structure (smiles),measurement,setting,value
O=[N+]([O-])/C=C/c1ccc(O)cc1,Activity,[1],Active
same,MIC,[2],7.8 ng/mL
same,Activity,[3],Active
same,fractional inhibitory concentration index (FICI),[4],<3.5
same,MIC,[5],0.25 µg/mL
same,Activity,[6],Active
same,MIC80,[7],2 µg/mL
same,Activity,[8],Active
same,Activity,[9],Active
same,Activity,[10],Active
same,MIC80,[11],2 µg/mL
same,Activity,[12],Active
same,fractional inhibitory concentration index (FICI),[13],0.375
same,Activity,[14],Active
same,Activity,[15],Active
same,Activity,[16],Active
same,MIC,[17],12.5 µg/mL
same,MIC80,[18],4 µg/mL
same,fractional inhibitory concentration index (FICI),[19],<0.5
same,Activity,[20],Active
same,Activity,[21],Active
same,MIC80,[22],4 µg/mL
same,Activity,[23],Active
same,Activity,[24],Active
same,fractional inhibitory concentration index (FICI),[25],0.375
same,fractional inhibitory concentration index (FICI),[26],0.257
same,MIC,[27],0.0312 µg/mL
same,inhibition,[28],Dde
same,Activity,[29],Active
same,fractional inhibitory concentration index (FICI),[30],0.25
same,Activity,[31],Active
same,Activity,[32],Active
